Reference: ChEMBL document CHEMBL3885861, “Open TG-GATES”

Species: Rattus norvegicus
Experiment: Open TG-GATES - Regimen: Single
Format: toxicity, organism-based, Sprague-Dawley
Parameters: regimen Single, gender Male, age 6 weeks
Conditions: in vivo, po, 0 mg/kg, route gavage, dose level Control; for APTT / Bas / Eos / Fbg / Hb / Ht / Lym / MCH / MCHC / MCV / Mono / Neu / PT / Plat / RBC / Ret / WBC: tissue Blood; for KIDNEY_L / KIDNEY_R / KIDNEY_TOTAL: tissue Kidney; for LIVER: tissue Liver; for A/G / ALP / ALT / AST / BUN / CRE / Ca / Cl / DBIL / GLC / IP / K / LDH / Na / PL / RALB / TBIL / TC / TG / TP / gamma-GTP: tissue Plasma

Compound `CCOC(=O)CCC(=O)O[C@H]1[C@H](O[C@@H]2[C@@H](C)[C@H](O[C@H]3C[C@@](C)(OC)[C@@H](O)[C@H](C)O3)[C@@H](C)C(=O)O[C@H](CC)[C@@](C)(O)[C@H](O)[C@@H](C)C(=O)[C@H](C)C[C@@]2(C)O)O[C@H](C)C[C@@H]1N(C)C` [ERYTHROMYCIN ETHYLSUCCINATE] has a TERMINAL_BW (3 h) of 215 g, an APTT (3 h) of 23.2 s and a Bas (3 h) of 0%. For the same compound, the Eos (3 h) was 1%, the Fbg (3 h) was 292.2 mg/dL and the Hb (3 h) was 13.2 g/dL. The Ht (3 h) was 40.2%, the Lym (3 h) was 81.2% and the MCH (3 h) was 20.8 pg. The MCHC (3 h) was 32.9%, the MCV (3 h) was 63.2 fL and the Mono (3 h) was 2%. The Neu (3 h) was 15%, the PT (3 h) was 16.3 s and the Plat (3 h) was 112.7 x10_4/uL. The RBC (3 h) was 635.6 x10_4/ul, the Ret (3 h) was 7.9% and the WBC (3 h) was 75.2 x10_2/uL. The KIDNEY_L (3 h) was 0.9 g, the KIDNEY_R (3 h) was 0.9 g and the KIDNEY_TOTAL (3 h) was 1.8 g. The LIVER (3 h) was 9.7 g, the A/G (3 h) was 1.2 and the ALP (3 h) was 1728.4 IU/L. The ALT (3 h) was 40.6 IU/L, the AST (3 h) was 76.6 IU/L and the BUN (3 h) was 14.6 mg/dL. The CRE (3 h) was 0.2 mg/dL, the Ca (3 h) was 10.4 mg/dL and the Cl (3 h) was 103.2 meq/L. It also gave a DBIL (3 h) of 0 mg/dL, a GLC (3 h) of 188.2 mg/dL and an IP (3 h) of 8.3 mg/dL. It also gave a K (3 h) of 3.9 meq/L, an LDH (3 h) of 159.2 IU/L and a Na (3 h) of 139.4 meq/L. For the same compound, the PL (3 h) was 140 mg/dL, the RALB (3 h) was 2.9 g/dL and the TBIL (3 h) was 0.012 mg/dL. The TC (3 h) was 84.8 mg/dL, the TG (3 h) was 55.4 mg/dL and the TP (3 h) was 5.4 g/dL. The gamma-GTP (3 h) was 1 IU/L, the TERMINAL_BW (6 h) was 212.6 g and the APTT (6 h) was 22.9 s. The Bas (6 h) was 0%, the Eos (6 h) was 0.6% and the Fbg (6 h) was 321.8 mg/dL. It also gave a Hb (6 h) of 13.8 g/dL, a Ht (6 h) of 42.2% and a Lym (6 h) of 75.8%. The MCH (6 h) was 21.3 pg, the MCHC (6 h) was 32.8% and the MCV (6 h) was 65 fL. For the same compound, the Mono (6 h) was 2.4%, the Neu (6 h) was 20.2% and the PT (6 h) was 15.8 s. It also gave a Plat (6 h) of 121 x10_4/uL, an RBC (6 h) of 651 x10_4/ul and a Ret (6 h) of 7.6%. It also gave a WBC (6 h) of 111.5 x10_2/uL, a KIDNEY_L (6 h) of 0.9 g and a KIDNEY_R (6 h) of 0.9 g. The KIDNEY_TOTAL (6 h) was 1.9 g, the LIVER (6 h) was 9.3 g and the A/G (6 h) was 1.2. For the same compound, the ALP (6 h) was 1491 IU/L, the ALT (6 h) was 37.4 IU/L and the AST (6 h) was 70.6 IU/L. It also gave a BUN (6 h) of 9.6 mg/dL, a CRE (6 h) of 0.2 mg/dL and a Ca (6 h) of 10.3 mg/dL. It also gave a Cl (6 h) of 103.4 meq/L, a DBIL (6 h) of 0.002 mg/dL and a GLC (6 h) of 190.6 mg/dL. For the same compound, the IP (6 h) was 8.9 mg/dL, the K (6 h) was 4.1 meq/L and the LDH (6 h) was 138 IU/L. For the same compound, the Na (6 h) was 139.6 meq/L, the PL (6 h) was 139.8 mg/dL and the RALB (6 h) was 3 g/dL. It also gave a TBIL (6 h) of 0.02 mg/dL, a TC (6 h) of 78.8 mg/dL and a TG (6 h) of 67.6 mg/dL. The TP (6 h) was 5.5 g/dL, the gamma-GTP (6 h) was 1.2 IU/L and the TERMINAL_BW (9 h) was 212 g. It also gave an APTT (9 h) of 22.4 s, a Bas (9 h) of 0% and an Eos (9 h) of 0.6%. For the same compound, the Fbg (9 h) was 319.6 mg/dL, the Hb (9 h) was 13 g/dL and the Ht (9 h) was 39.6%. The Lym (9 h) was 81.2%, the MCH (9 h) was 20.4 pg and the MCHC (9 h) was 32.8%. It also gave an MCV (9 h) of 62.2 fL, a Mono (9 h) of 1.8% and a Neu (9 h) of 15.4%. The PT (9 h) was 15.9 s, the Plat (9 h) was 118.3 x10_4/uL and the RBC (9 h) was 636.4 x10_4/ul. It also gave a Ret (9 h) of 7.4%, a WBC (9 h) of 106.6 x10_2/uL and a KIDNEY_L (9 h) of 1 g. The KIDNEY_R (9 h) was 1 g, the KIDNEY_TOTAL (9 h) was 1.9 g and the LIVER (9 h) was 9 g. It also gave an A/G (9 h) of 1.2, an ALP (9 h) of 1414 IU/L and an ALT (9 h) of 38.4 IU/L. It also gave an AST (9 h) of 69.8 IU/L, a BUN (9 h) of 10.8 mg/dL and a CRE (9 h) of 0.2 mg/dL. For the same compound, the Ca (9 h) was 10.5 mg/dL, the Cl (9 h) was 103.6 meq/L and the DBIL (9 h) was 0 mg/dL. The GLC (9 h) was 190.8 mg/dL, the IP (9 h) was 9.1 mg/dL and the K (9 h) was 4.2 meq/L. It also gave an LDH (9 h) of 161.4 IU/L, a Na (9 h) of 139.2 meq/L and a PL (9 h) of 124.4 mg/dL. It also gave an RALB (9 h) of 2.9 g/dL, a TBIL (9 h) of 0.016 mg/dL and a TC (9 h) of 71.6 mg/dL. For the same compound, the TG (9 h) was 51.6 mg/dL, the TP (9 h) was 5.4 g/dL and the gamma-GTP (9 h) was 1 IU/L. For the same compound, the TERMINAL_BW (24 h) was 227 g, the APTT (24 h) was 20.9 s and the Bas (24 h) was 0%. The Eos (24 h) was 1%, the Fbg (24 h) was 327.8 mg/dL and the Hb (24 h) was 13.5 g/dL. It also gave a Ht (24 h) of 40.3%, a Lym (24 h) of 83.8% and an MCH (24 h) of 21.4 pg. It also gave an MCHC (24 h) of 33.4%, an MCV (24 h) of 64.2 fL and a Mono (24 h) of 3.4%. For the same compound, the Neu (24 h) was 11%, the PT (24 h) was 15.9 s and the Plat (24 h) was 111.9 x10_4/uL. It also gave an RBC (24 h) of 629.4 x10_4/ul, a Ret (24 h) of 7.8% and a WBC (24 h) of 111 x10_2/uL. For the same compound, the KIDNEY_L (24 h) was 1 g, the KIDNEY_R (24 h) was 1 g and the KIDNEY_TOTAL (24 h) was 2 g. The LIVER (24 h) was 10.5 g, the A/G (24 h) was 1.2 and the ALP (24 h) was 1574.2 IU/L. For the same compound, the ALT (24 h) was 37.6 IU/L, the AST (24 h) was 66.4 IU/L and the BUN (24 h) was 17.8 mg/dL. The CRE (24 h) was 0.1 mg/dL, the Ca (24 h) was 10.5 mg/dL and the Cl (24 h) was 106.6 meq/L. It also gave a DBIL (24 h) of 0 mg/dL, a GLC (24 h) of 211.4 mg/dL and an IP (24 h) of 8.5 mg/dL. It also gave a K (24 h) of 4.3 meq/L, an LDH (24 h) of 191.4 IU/L and a Na (24 h) of 143 meq/L. For the same compound, the PL (24 h) was 156.2 mg/dL, the RALB (24 h) was 3 g/dL and the TBIL (24 h) was 0.024 mg/dL. For the same compound, the TC (24 h) was 81.4 mg/dL, the TG (24 h) was 119.4 mg/dL and the TP (24 h) was 5.4 g/dL. The gamma-GTP (24 h) was 1.2 IU/L.
